In the NIST ThermoML archive (doi:10.1021/je900414p):

Assay: xn = mol fraction of the nth substance listed
Details: Liquid

CCOS(=O)(=O)[O-].CCn1cc[n+](C)c1 [1-ethyl-3-methylimidazolium ethyl sulfate] + CCO
mass density [kg/m3]
Details	100 kPa	2500 kPa	5000 kPa	10000 kPa	15000 kPa	20000 kPa	25000 kPa	30000 kPa	35000 kPa
333.15 K, x1 = 0.05056	826.91	829.15	831.49	835.97	840.22	844.27	848.14	851.85	855.41
333.15 K, x1 = 0.103	885.77	887.83	889.93	893.99	897.89	901.61	905.17	908.61	911.93
333.15 K, x1 = 0.1247	907.28	909.17	911.19	915.1	918.84	922.44	925.91	929.24	932.47
333.15 K, x1 = 0.2126	977.1	978.86	980.64	984.14	987.5	990.73	993.88	996.92	999.88
333.15 K, x1 = 0.2919	1026.55	1027.68	1029.31	1032.48	1035.56	1038.53	1041.42	1044.25	1046.98
333.15 K, x1 = 0.3185	1039.85	1041.25	1042.83	1045.92	1048.93	1051.83	1054.66	1057.43	1060.13
333.15 K, x1 = 0.4198	1083.92	1085.39	1086.84	1089.7	1092.49	1095.2	1097.84	1100.42	1102.94
333.15 K, x1 = 0.4847	1106.62	1107.91	1109.29	1112.04	1114.72	1117.29	1119.85	1122.34	1124.77
333.15 K, x1 = 0.5713	1132.56	1133.8	1135.1	1137.7	1140.25	1142.73	1145.17	1147.56	1149.9
333.15 K, x1 = 0.6827	1159.67	1160.86	1162.12	1164.6	1167.03	1169.4	1171.73	1174	1176.25
333.15 K, x1 = 0.7919	1181.63	1182.51	1183.7	1186.07	1188.4	1190.67	1192.91	1195.12	1197.28
333.15 K, x1 = 0.9317	1203.54	1204.68	1205.83	1208.1	1210.35	1212.54	1214.7	1216.82	1218.92
343.15 K, x1 = 0.05056	818.25	820.66	823.11	827.83	832.27	836.51	840.54	844.41	848.12
343.15 K, x1 = 0.103	877.67	879.77	881.99	886.23	890.27	894.14	897.85	901.43	904.85
343.15 K, x1 = 0.1247	899.5	901.47	903.69	907.82	911.68	915.39	918.99	922.46	925.77
343.15 K, x1 = 0.2126	969.67	971.48	973.32	976.91	980.38	983.71	986.96	990.09	993.12
343.15 K, x1 = 0.2919	1019.38	1020.57	1022.23	1025.5	1028.64	1031.72	1034.69	1036.01	1040.41
343.15 K, x1 = 0.3185	1032.6	1034.03	1035.67	1038.87	1041.94	1044.93	1047.86	1050.69	1053.46
343.15 K, x1 = 0.4198	1076.98	1078.52	1080	1082.95	1085.8	1088.59	1091.31	1093.96	1096.54
343.15 K, x1 = 0.4847	1099.67	1100.97	1102.41	1105.21	1107.95	1110.61	1113.23	1115.78	1118.28
343.15 K, x1 = 0.5713	1125.7	1126.98	1128.32	1131.01	1133.6	1136.16	1138.67	1141.1	1143.48
343.15 K, x1 = 0.6827	1152.86	1154.1	1155.37	1157.89	1160.38	1162.8	1165.19	1167.53	1169.82
343.15 K, x1 = 0.7919	1175	1175.81	1177.05	1179.48	1181.84	1184.18	1186.47	1188.72	1190.93
343.15 K, x1 = 0.9317	1196.87	1198.02	1199.21	1201.52	1203.82	1206.06	1208.26	1210.44	1212.58
